We go through twelve compounds from patent publication US5401768A, “2,5,6,7-tetranor-4,8-inter-m-phenylene PGI2, derivative, manufacturing process thereof and its use” (Toray Industries, Inc., priority 1987, dated 1995).

Test [1] relates to pressure of carotid arteries. The experiment in a line: Hypotensive effect (carotid artery pressure, chloralose anesthesia). The class given is in vivo, Wistar rat (male). The settings on record: Rattus norvegicus, femoral catheter injection, read-out: ED25 mmHg (dose which may reduce the blood pressure by 25 mmHg). As to the method: Under chloralose anesthesia, catheter was inserted to carotid arteries of Wistar rat (male). The catheter was connected to a polygraph via pressure transducer to measure the pressure of carotid arteries. The compound was injected via catheter connected to a femoral articles. The dose which may reduce the blood pressure by 25 mmHg from the dose-response curve was designated as ED25. The effectiveness of each compound was compared based on it.

Test [2] deals with gastric acid secretion. The experiment in a line: Gastric acid secretion-inhibiting action by pylorus ligation (Shay's method). The class given is in vivo. To be noted: Rattus norvegicus, injected into duodenum, 5 hours, 5 animals in a group. As to the method:
Gastric acid secretion-inhibiting action by pylorus ligation
According to the Shay's method (Gastroeuterology 5, 43 (1945)), median section was performed on abdomen of the rat under ether anesthesia and pylorus was ligated with thread. At the same time, the compound was injected into duodenum and then the incision was closed. After 5 hours, the abdomen was incised again and whole stomach was removed after ligating esophagus. The great curvature of the stomack was incised and the content was transferred to a graduated centrifuge tube. After centrifugation at 3000 rpm for 10 minutes, the volume of the gastric juice was measured. A part of the supernatant was sampled and was titrated with 0.1N NaOH until the pH became 7 using pH star (commercially available from Radio Meter Co., Ltd.).

The next test relates to platelet aggregation. Nature of the test: Platelet aggregation-inhibiting action (ADP-induced, platelet-rich plasma). The class given is cell-based. To be noted: ADP 10 μM, compound added 1 minute before ADP, human PRP, read-out: IC50 (concentration which inhibits 50% platelet aggregation). The protocol:
Blood taken from human median cubital vein was centrifuged at 800 rpm for 10 minutes and the upper part was collected as platelet-rich plasma (PRP). PRP was put into small test tubes and […] (ADP) was added thereto (final concentration of 10 μM) to induce platelet aggregation. The degree of platelet aggregation was measured as the change of turbidity determined by using a platelet aggregation measuring apparatus (commercially available from Rikadenki Co., Ltd., Tokyo). The compound was added 1 minute before the addition of ADP. The concentration which inhibits 50% aggregation was designated as IC50.

The test system of test [3] is gastric acid secretion. Nature of the test: Gastric acid secretion-inhibiting action (pentagastrin-stimulated, perfused stomach). The class given is in vivo, Male SD rat. To be noted: PGE2 = 1; pentagastrin 0.05 μg/kg/min; femoral vein injection; area under pH curve. As to the method:
Gastric acid secretion-inhibiting action
Male SD rat was incised in the abdomen under urethane anesthesia to open a hole at lumen of stomach. A double cannula was inserted from the hole and physiological saline was perfused in the stomack. The gastric acid flowed out was monitored by a pH meter (M. Chosh, H. Schild Br.J. Pharmacol 13, 54 (1958)). When the pH of the gastric acid was stabilized to about 4 after stimulation with continuous injection of pentagastrin at a rate of 0.05 μg/kg/min, the compound was injected through the femoral vein. As an index of the gastric acid secretion-inhibiting effect was measured using area enclosed by the curve from the point at which the pH started to increase by the gastric acid secretion-inhibiting effect to the point at which the pH is come back to the baseline. The relative effectiveness of gastric acid secretion-inhibiting effect of a compound was expressed when the value of PGE2 is 1, and the effectiveness of each compound was compared.

For test [4], the system named is ulcer index (corpus of stomack). Nature of the test: Cytoprotection (0.2N NaOH-induced gastric lesions, oral compound). The class given is in vivo. The settings on record: 30 minutes before oral 0.2N NaOH, read-out: ED50 (dose by which the ulcer index decreased to 50% of control). As to the method: According to the method by A. Robert (Gartroerterolegy, 77(3), 443 (1979)), 30 minutes after oral administration of the compound, 0.2N NaOH was administered orally to the animals. After an hour, the animal was sacrified by chloroform anesthesia and the stomack was removed and fixed in 5% formalin solution. After fixation, the stomack was cut along the great curvature. A total length of blooding spot appearing on the corpus of stomack was measured and served as the ulcer index. When the ulcer index of the control group is taken as 100%, the dose of the compound by which the ulcer index decreased to 50% is designated as ED50.

The mark [5] stands for this setting: level of the acid (mEq/ml), read-out: ED50 Gastric Acid.
The mark [6] stands for this setting: volume decreased to 50% of control, read-out: ED50 Volume of Gastric Juice.

Values after ≈ are worked out from the molar mass of the structure shown. Read-outs that look alike come from different tables or passages of the source.

In general, ED50 refers to the dose at which the effect has come halfway, by size or by number of responders. With `CCCCC[C@H](O)/C=C/[C@@H]1[C@H]2c3cccc(CCC(=O)O)c3O[C@H]2C[C@H]1O` (relative stereo) [Compound 42, 2,5,6,7-tetranor-4,8-inter-m-phenylene PGI2], the ED (25 mmHg) in test [1] stood at 0.00046 mg/kg. Further, the 50% effective dose (ED50) was found to be 3.8 mg/kg in the test with gastric acid secretion [2] (setting [5]), 4.6 mg/kg in the test with gastric acid secretion [2] (setting [6]) and 0.0486 mg/kg in test [4]. In the test with platelet aggregation, the IC50 was found to be 5.8 ng/mL (≈ 0.0155 µM). In the test on gastric acid secretion [3], the “Relative Effectiveness to PGE2 (gastric acid secretion inhibition)” value is 3.6.
Consider `CCCCC(C)[C@H](O)/C=C/[C@@H]1[C@H]2c3cccc(CCC(=O)O)c3O[C@H]2C[C@H]1O` (some centres unmarked) [Compound 51, 16-methyl-2,5,6,7-tetranor-4,8-inter-m-phenylene PGI2], for which, in test [1], the ED (25 mmHg) was found to be 0.00011 mg/kg. For the same compound, the ED50 with gastric acid secretion [2] (setting [5]) is 0.21 mg/kg; with gastric acid secretion [2] (setting [6]) it was 0.36 mg/kg; in test [4], 0.00046 mg/kg. Besides, the “Relative Effectiveness to PGE2 (gastric acid secretion inhibition)” value with gastric acid secretion [3] is listed as 35.
Consider `CCOCC(C)(C)[C@H](O)/C=C/[C@@H]1[C@H]2c3cccc(CCC(=O)O)c3O[C@H]2C[C@H]1O` (relative stereo) [Compound 108, 16,16-dimethyl-2,5,6,7-tetranor-18-oxa-4,8-inter-m-phenylene PGI2], for which the ED50 is 2.02 mg/kg with gastric acid secretion [2] (setting [5]), greater than 10 mg/kg with gastric acid secretion [2] (setting [6]) and 0.0035 mg/kg in test [4]. The “Relative Effectiveness to PGE2 (gastric acid secretion inhibition)” value with gastric acid secretion [3] came out at 7.0.
With `O=C(O)CCc1cccc2c1O[C@H]1C[C@@H](O)[C@H](/C=C/[C@@H](O)c3ccccc3)[C@@H]21` (relative stereo) [Compound 71, 15-phenyl-2,5,6,7,16,17,18,19,20-nonanor-4,8-inter-m-phenylene PGI2], the ED (25 mmHg) in test [1] came to 0.00026 mg/kg. For the same compound, the ED50 with gastric acid secretion [2] (setting [5]) is 0.034 mg/kg; in the test with gastric acid secretion [2] (setting [6]), 0.045 mg/kg; in test [4] it was 0.0015 mg/kg. In addition, the IC50 in the test with platelet aggregation was 2.85 ng/mL (≈ 0.00749 µM). Further, the “Relative Effectiveness to PGE2 (gastric acid secretion inhibition)” value in the test with gastric acid secretion [3] was determined as 7.1.
For `CCCCCC[C@H](O)/C=C/[C@@H]1[C@H]2c3cccc(CCC(=O)O)c3O[C@H]2C[C@H]1O` (relative stereo) [Compound 45, 20a-homo-2,5,6,7-tetranor-4,8-inter-m-phenylene PGI2], the “Relative Effectiveness to PGE2 (gastric acid secretion inhibition)” value with gastric acid secretion [3] is 3.5.
Same read-out and setting: the same measure for `CCCCC[C@H](O)/C=C/[C@H]1[C@H](O)CC(=O)[C@@H]1C/C=C\CCCC(=O)O` [PGE2, reference compound]: 1.
Consider `O=C(O)CCc1cccc2c1O[C@H]1C[C@@H](O)[C@H](/C=C/[C@@H](O)COc3ccccc3)[C@@H]21` (relative stereo) [Compound 120, 16-phenoxy-2,5,6,7,17,18,19,20-octanor-4,8-inter-m-phenylene PGI2], for which the ED (25 mmHg) in test [1] worked out at 0.00051 mg/kg. For the same compound, the results for the ED50 (with gastric acid secretion [2] (setting [5]); with gastric acid secretion [2] (setting [6]); in test [4]) were 0.11 mg/kg, 0.3 mg/kg and 0.00456 mg/kg, respectively. In the test with platelet aggregation, the IC50 came out at 1000 ng/mL (≈ 2.44 µM). For the same compound, the “Relative Effectiveness to PGE2 (gastric acid secretion inhibition)” value in the test with gastric acid secretion [3] was 54.
Consider `CCCCC(C)(C)[C@H](O)/C=C/[C@@H]1[C@H]2c3cccc(CCC(=O)O)c3O[C@H]2C[C@H]1O` (relative stereo) [Compound 48, 16,16-dimethyl-2,5,6,7-tetranor-4,8-inter-m-phenylene PGI2], for which the ED (25 mmHg) in test [1] is 0.00084 mg/kg. The ED50 with gastric acid secretion [2] (setting [5]) was 0.63 mg/kg; with gastric acid secretion [2] (setting [6]), 6.3 mg/kg; in test [4], 0.0023 mg/kg. Besides, the IC50 with platelet aggregation came to 1000 ng/mL (≈ 2.48 µM).
On to `CCC[C@H](C)C[C@H](O)/C=C/[C@@H]1[C@H]2c3cccc(CCC(=O)O)c3O[C@H]2C[C@H]1O` [Compound 54, 17-(S)-methyl-2,5,6,7-tetranor-4,8-inter-m-phenylene PGI2], for which the ED (25 mmHg) in test [1] is 0.00078 mg/kg. In addition, the figures for the ED50 (in the test on gastric acid secretion [2] (setting [5]); in the test with gastric acid secretion [2] (setting [6]); in test [4]) were 0.11 mg/kg, 0.015 mg/kg and 0.00086 mg/kg, respectively. Further, the IC50 in the test with platelet aggregation stood at 3.2 ng/mL (≈ 0.00824 µM). Also, the “Relative Effectiveness to PGE2 (gastric acid secretion inhibition)” value in the test on gastric acid secretion [3] amounted to 6.1.
Turning to `CCCOC[C@H](O)/C=C/[C@@H]1[C@H]2c3cccc(CCC(=O)O)c3O[C@H]2C[C@H]1O` (relative stereo) [Compound 101, 2,5,6,7-tetranor-17-oxa-4,8-inter-m-phenylene PGI2], the ED (25 mmHg) in test [1] amounted to 0.0015 mg/kg. Besides, the ED50 with gastric acid secretion [2] (setting [5]) stood at 0.9 mg/kg; in the test on gastric acid secretion [2] (setting [6]), 1.4 mg/kg; in test [4], 0.0789 mg/kg. The “Relative Effectiveness to PGE2 (gastric acid secretion inhibition)” value with gastric acid secretion [3] is 4.9.
On to `CC(C)(Oc1ccccc1)[C@H](O)/C=C/[C@@H]1[C@H]2c3cccc(CCC(=O)O)c3O[C@H]2C[C@H]1O` (relative stereo) [Compound 124, 16-methyl-16-phenoxy-2,5,6,7,18,19,20-heptanor-4,8-inter-m-phenylene PGI2], for which the ED (25 mmHg) in test [1] amounted to 0.0013 mg/kg. For the same compound, the ED50 was determined as 0.19 mg/kg with gastric acid secretion [2] (setting [5]), 0.75 mg/kg in the test with gastric acid secretion [2] (setting [6]) and 0.003 mg/kg in test [4]. Also, the “Relative Effectiveness to PGE2 (gastric acid secretion inhibition)” value in the test with gastric acid secretion [3] is 62.
Regarding `O=C(O)CCc1cccc2c1O[C@H]1C[C@@H](O)[C@H](/C=C/[C@@H](O)C3CCCCC3)[C@@H]21` (relative stereo) [Compound 60, 15-cyclohexyl-2,5,6,7,16,17,18,19,20-nonanor-4,8-inter-m-phenylene PGI2], the ED (25 mmHg) in test [1] is 0.00017 mg/kg. For the same compound, the ED50 with gastric acid secretion [2] (setting [5]) is 2.39 mg/kg; in the test on gastric acid secretion [2] (setting [6]), 1.19 mg/kg; in test [4], 0.00679 mg/kg. Also, the IC50 in the test with platelet aggregation was determined as 3.8 ng/mL (≈ 0.00983 µM). Besides, the “Relative Effectiveness to PGE2 (gastric acid secretion inhibition)” value in the test on gastric acid secretion [3] came out at 1.3.
